Experimental data published in patent US20100086519A1, “Treatment of Hepatitis C Infection With Metalloporphyrins” (The Charlotte-Mecklenburg Hospital Authority d/b/a …, priority 2008, published 2010).
Where a SMILES comes first, the peptide text is derived from it. The star is where a group is joined. Cbz = O=C(OCc1ccccc1)*

Columns and labels:
HCV NS5A protein [1] = target: T1, HCV NS5A protein (Hepatitis C virus genotype 1b, UniProt Q9WMX2); assay: NS5A protein levels by Western blot in 9-13 cells; type: cell-based; set-up: processed into structural (C, E1, E2) and nonstructural (NS2, NS3, NS4A, NS4B, NS5A and NS5B) proteins; expressed in transfected cells; host or cells: 9-13 cells (human hepatoma cells with a replicating HCV NS3-NS5B region); settings: 9-13 cells; for NS5A protein levels, proteasome inhibitor alone: absence of ZnMP, FIG. 5C; for effect on degradation of NS5A by ZnMP 5 μM: epoxomicin 5, 10 μM or MG132 10, 20 μM 30 min before ZnMP 5 μM; for effect on degradation of NS5A by ZnMP 5 μM / effect on degradation of NS5A by ZnMP 10 μM / NS5A protein levels: 4 hours; for effect on degradation of NS5A by ZnMP 10 μM: epoxomicin 5, 10 μM or MG132 10, 20 μM 30 min before ZnMP 10 μM; for NS5A protein levels: 10 μM, FIG. 2A
T1 sequence (Q9WMX2 1973-2419): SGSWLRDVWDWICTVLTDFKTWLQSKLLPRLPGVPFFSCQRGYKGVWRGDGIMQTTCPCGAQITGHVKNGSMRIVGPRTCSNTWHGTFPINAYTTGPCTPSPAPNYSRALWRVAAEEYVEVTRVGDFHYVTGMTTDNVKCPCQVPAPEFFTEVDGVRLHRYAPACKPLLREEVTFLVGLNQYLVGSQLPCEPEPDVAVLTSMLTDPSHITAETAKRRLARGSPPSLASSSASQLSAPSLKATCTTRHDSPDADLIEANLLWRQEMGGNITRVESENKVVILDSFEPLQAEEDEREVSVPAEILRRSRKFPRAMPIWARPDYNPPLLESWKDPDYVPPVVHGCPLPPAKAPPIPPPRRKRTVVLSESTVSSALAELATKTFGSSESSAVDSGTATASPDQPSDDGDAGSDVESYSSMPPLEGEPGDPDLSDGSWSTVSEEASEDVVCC
Text: Bartenschlager (University of Heidelberg, Heidelberg, Germany).
Biochim Biophys Acta 2008; 1779:195-203.

HCV NS5A protein [2] = target: T1, HCV NS5A protein; assay: polyubiquitination of NS5A by immunoprecipitation and immunoblot in 9-13 cells; type: cell-based; set-up: processed into structural (C, E1, E2) and nonstructural (NS2, NS3, NS4A, NS4B, NS5A and NS5B) proteins; expressed in transfected cells; host or cells: 9-13 cells (human hepatoma cells with a replicating HCV NS3-NS5B region)
Method: Immunoprecipitation was carried out according to the Manufacturer's protocol. Briefly, cells were harvested in cold radioimmunoprecipitation assay (RIPA) buffer (50 mM Tris-HC1 [pH 7.4], 150 mM NaCl, 1 mM EDTA, 0.25% sodium deoxycholate, 1% IGEPAL CA-630, 1 mM PMSF, 1 mM NaF, 1 mM Na3VO4 and 1 μg/ml each of aprotinin, leupeptin, and pepstatin). The samples were pre-cleared with Protein A/G Agarose for 10 min at 4° C. and subsequently incubated while gently rotating at 4° C. overnight with primary antibody, followed by Protein A/G beads for 1 h at 4° C. Beads were spun down and washed twice with RIPA buffer. Protein samples were separated by electrophoresis on 4-15% SDS-PAGE gels, and transferred to PVDF membrane, conjugated ubiquitin was detected as described for Western blot analysis using anti-ubiquitin antibody.
This Example investigates whether ZnMP induces polyubquitination of NS5A to gain insight into the mechanism by which ZnMP mediates degradation of NS5A protein. 9-13 cells were treated without or with 10 μM ZnMP for 4 h. Total proteins were extracted for subsequent Western blot or immunoprecipitation analysis. Immunoprecipitation was carried out using anti-HCV NS5A antibody. Ubiquitin conjugation of NS5A [polyubiquitinated NS5A (Ub)n-NS5A]was examined with immunoprecipitation using an anti-HCV NS5A antibody and immunoblot using an anti-ubiquitin antibody. […] In FIG. 6B, ubiquitination of NS5A following ZnMP treatment, or vehicle (DMSO) only was compared. The positions of molecular mass markers (in kilodaltons) are indicated to the left of the gel. The bracket indicates polyubiquitinated NS5A. Asterisks indicate cross-reacting immunoglobulin heavy chain. […] These bands may represent polyubiquitinated NS5A.

HCV = assay: anti-viral activity (summary statement); type: cell-based, hepatitis C virus
9-13 cells = assay: growth of cells exposed to proteasome inhibitor; type: cell-based, human; settings: 20 μM
HO-1 gene = settings: NIH 3T3 cells; cited from earlier work
Bach1 = target: T2, Bach1 (Mus musculus, UniProt P97302); settings: NIH 3T3 cells; cited from earlier work
T2 construct: host or cells: NIH 3T3 cells
T2 sequence (P97302 1-739): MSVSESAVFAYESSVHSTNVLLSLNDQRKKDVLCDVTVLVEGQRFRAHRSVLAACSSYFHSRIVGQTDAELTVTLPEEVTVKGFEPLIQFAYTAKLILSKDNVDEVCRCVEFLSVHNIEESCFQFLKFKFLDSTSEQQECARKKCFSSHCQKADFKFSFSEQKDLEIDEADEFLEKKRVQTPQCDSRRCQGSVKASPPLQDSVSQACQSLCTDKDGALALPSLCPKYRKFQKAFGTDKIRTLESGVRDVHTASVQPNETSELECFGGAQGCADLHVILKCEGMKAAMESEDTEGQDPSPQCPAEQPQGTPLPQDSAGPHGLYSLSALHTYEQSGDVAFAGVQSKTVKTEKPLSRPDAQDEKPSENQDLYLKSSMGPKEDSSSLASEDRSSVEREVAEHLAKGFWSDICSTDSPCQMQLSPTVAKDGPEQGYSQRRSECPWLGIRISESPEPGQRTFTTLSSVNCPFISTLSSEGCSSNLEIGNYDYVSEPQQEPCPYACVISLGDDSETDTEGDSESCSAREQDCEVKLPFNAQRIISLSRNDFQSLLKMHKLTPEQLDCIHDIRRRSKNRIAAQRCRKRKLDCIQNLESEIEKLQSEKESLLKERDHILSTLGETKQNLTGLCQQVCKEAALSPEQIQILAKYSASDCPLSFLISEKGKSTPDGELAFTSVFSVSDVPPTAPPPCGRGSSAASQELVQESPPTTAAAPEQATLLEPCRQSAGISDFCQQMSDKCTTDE

**Q.** Which “NS5A protein levels, proteasome inhibitor alone” value (HCV NS5A protein [1]) does the source give for `CC(C)C[C@@H](C=O)NC(=O)[C@H](CC(C)C)NC(=O)[C@H](CC(C)C)NC(=O)OCc1ccccc1` [MG132] (Cbz-Leu-Leu-Leu-aldehyde) here?
**A.** did not affect

**Q.** What about the “effect on degradation of NS5A by ZnMP 5 μM” value (HCV NS5A protein [1]) of the same compound?
**A.** completely abrogated

**Q.** What about the “effect on degradation of NS5A by ZnMP 10 μM” value (HCV NS5A protein [1]) of the same compound?
**A.** significant reversal

**Q.** With `c1ccc(CN(CCN(Cc2ccccn2)Cc2ccccn2)Cc2ccccn2)nc1` [TEPN, N, N, N, N-tetrakis-(2-pyridylmethyl) ethylenediamine] as the compound, how does the “effect on ZnMP-mediated down-regulation of NS5A protein levels” value (HCV NS5A protein [1]; chelator 30 min before ZnMP, then 4 h, FIG. 3) read?
**A.** did not affect

**Q.** Which NS5A protein levels (HCV NS5A protein [1]) does the source give for `[Cl-].[Cl-].[Zn+2]` [ZnCl2, zinc chloride] here?
**A.** not affected

**Q.** Which “polyubquitination of NS5A (summary statement)” value (HCV NS5A protein [2]) does the source give for `C=CC1=C(C)c2cc3[n-]c(cc4nc(cc5[n-]c(cc1n2)c(C)c5C=C)C(C)=C4CCC(=O)O)c(CCC(=O)O)c3C.[Zn+2]` [ZnPP, Zinc protoporphyrin] here?
**A.** induce polyubquitination

**Q.** What about the “anti-viral activity (summary statement)” value (HCV) of the same compound?
**A.** display anti-viral activity

**Q.** Which “NS5A protein levels, proteasome inhibitor alone” value (HCV NS5A protein [1]) does the source give for `CC[C@H](C)[C@H](NC(=O)[C@H]([C@@H](C)CC)N(C)C(C)=O)C(=O)N[C@H](C(=O)N[C@@H](CC(C)C)C(=O)[C@@]1(C)CO1)[C@@H](C)O` [epoxomicin] here?
**A.** did not affect

**Q.** And the “effect on degradation of NS5A by ZnMP 5 μM” value (HCV NS5A protein [1])?
**A.** completely abrogated

**Q.** And the “effect on degradation of NS5A by ZnMP 10 μM” value (HCV NS5A protein [1])?
**A.** significant reversal

**Q.** What about the “toxicity to the cells (cell growth)” value (9-13 cells) of the same compound?
**A.** toxic

**Q.** With Tin mesoporphyrin [SnMP] as the compound, how does the “NS5A protein levels, time course” value (HCV NS5A protein [1]; 10 μM, 0, 2, 4, 6 h, FIG. 2B) read?
**A.** no detectable effects

**Q.** And the HO-1 gene expression (HO-1 gene)?
**A.** induce

**Q.** And the Bach1 protein levels (Bach1)?
**A.** down-regulate

**Q.** For mesoporphyrin, which NS5A protein levels (HCV NS5A protein [1]) is on record?
**A.** not affected
